# Source: patent publication US20240216412A1, “OXIDIZED NICOTINAMIDE ADENINE DINUCLEOTIDE (NAD+) PRECURSOR TREATMENT FOR HEART FAILURE ALLEVIATION INDEPENDENT OF MITOCHONDRIAL PROTEIN DEACETYLATION” (University of Washington, priority 2022, published 2024)
# What was measured:
# [1] = test system: heart mRNA levels (Nppa, Ctgf, mtDNA encoded genes, PPARα/RXRα target genes); experiment: RT-PCR of heart transcripts and mitochondrial RNA junctions; assay type: in vivo, mouse
# Description: RNA Extraction and Quantitative Real-Time Polymerase Chain Reaction (RT-PCR). Total RNA was isolated from frozen heart tissue using the RNeasy fibrous Kit (Qiagen). Total RNA was reverse-transcribed into first-strand cDNA using Iscript (Bio-rad) according to manufacturer's guidelines. Real Time PCR was performed using SYBR green (Bio-Rad). Results of mRNA levels were normalized to 18S rRNA levels and reported as fold-change over control.
# [2] = test system: NAD+ salvage pathway / NAD(H) redox in mouse heart; experiment: Cardiac NAD+/NADH determination and targeted LC-MS metabolomics in TAC hearts; assay type: in vivo
# Description: NAD^+/NADH determination. NAD^+ and NADH were determined in 8 mg heart tissue using BioAssay Systems EnzyChrom NAD^+/NAD Assay Kit (E2ND-100) per manufactures instructions.
# Targeted Metabolomics. Analysis of metabolites was done by The Northwest Metabolomics Research Center at the University of Washington. Briefly, aqueous metabolites for targeted LC-MS profiling of heart tissue samples were extracted from frozen heart tissue (10 mg) by precipitating in 80:20% methanol:water. After centrifugation, the supernatant was transferred to LC/MS auto sampler vials (Thermo Fisher). The protein pellet was redissolved in 0.1M NaOH and protein concentration measured for normalization. Samples were first homogenized in 200 μL purified deionized water at 4° C., and then 800 μL of cold methanol. Afterwards samples were vortexed, stored for 30 minutes at −20° C., sonicated in an ice bath for 10 minutes, centrifuged for 15 min at 14,000 rpm and 4° C., and then 600 μL of supernatant was collected from each sample. […] Samples were transferred into LC vials and placed into a temperature controlled autosampler for LC-MS analysis.
# LC-MS Assay. Targeted LC-MS metabolite analysis was performed on a duplex-LC-MS system composed of two Shimadzu UPLC pumps, CTC Analytics PAL HTC-xt temperature-controlled auto-sampler (set at 4° C.) and AB Sciex 6500+ Triple Quadrupole MS equipped with ESI ionization source (2). UPLC pumps were connected to the autosampler in parallel and were able to perform two chromatography separations independently from each other. Each sample was injected twice on two identical analytical columns (Waters XBridge BEH Amide XP) performing separations in hydrophilic interaction liquid chromatography (HILIC) mode. While one column was performing separation and MS data acquisition in ESI+ ionization mode, the other column was getting equilibrated for sample injection, chromatography separation and MS data acquisition in ESI-mode. Each chromatography separation was 18 minutes (total analysis time per sample was 36 minutes). MS data acquisition was performed in multiple-reaction-monitoring (MRM) mode. LC-MS system was controlled using AB Sciex Analyst 1.6.3 software. Measured MS peaks were integrated using AB Sciex MultiQuant 3.0.3 software. The LC-MS assay was targeting 361 metabolites (plus 2 spiked reference internal standards). Up to 192 metabolites (plus 2 spiked standards) were measured across the study set, and over 95% of measured metabolites were measured across all the samples. In the addition to the study samples, two sets of quality control (QC) samples were used to monitor the assay performance as well as data reproducibility. One QC [QC(I)] was a pooled human serum sample used to monitor system performance and the other QC [QC(S)] was pooled study samples and this QC was used to monitor data reproducibility. Each QC sample was injected per every 10 study samples. The data were well reproducible with a median CV of 7.0%.
structure (smiles),measurement,setting,value
"NC(=O)c1ccc[n+]([C@@H]2O[C@H](CO)[C@@H](O)[C@H]2O)c1 [NR, Nicotinamide riboside chloride]",Atrial natriuretic peptide (Nppa) levels,[1]; Sirt3ko and WT TAC mice,decreased
same,Connective growth factor (Ctgf) levels,[1]; Sirt3ko and WT TAC mice,decreased
same,"Expression of mtDNA encoded genes (mt-Nd1, mt-Cox1 and mt-Cytb)","[1]; TAC hearts, Sirt3Ko and WT",improved
same,Expression of nuclear DNA encoded ETC genes,"[1]; TAC hearts, Sirt3Ko and WT",not changed
same,"Expression of PPARα target genes (Acadm, Ucp2, Ucp3, Octn2, Cpt1b)",[1]; failing (TAC) hearts,increased
same,"Accumulation of mitochondrial RNA precursor fragments (Nd1-Nd2, Cox1-Cox2 junctions)",[1]; failing hearts of WT and Sirt3Ko mice,removed the accumulation of RNA precursor fragments
same,Markers of lipid oxidation (oxidized glutathione),[2]; TAC mice,decreased
same,Cardiac levels of NAD(H),[2]; WT and Sirt3Ko hearts,increased
same,Cardiac levels of methyl-nicotinamide (MeNAM),[2]; WT and Sirt3Ko hearts,increased
same,Cardiac levels of nicotinamide (NAM),[2]; WT and Sirt3Ko hearts,increased
same,NAD+/NADH ratio,"[2]; both genotypes, after TAC",normalized
same,"Metabolites indicative of myocardial fibrosis (hydroxyproline, putrescine, spermidine)","[2]; myocardial tissue of TAC hearts, vs vehicle",reduced
